Where two headings read alike, the source gives them in different places. Non-standard residues stand in square brackets, D forms with d. Residues, ends and D or L forms follow the SMILES beside them. *: point of attachment. Acetyl(thymin-1-yl) = Cc1cn(CC(=O)*)c(=O)[nH]c1=O; Sar = CNCC(=O)O
Key:
Serum stability assay = type: in vitro ADME; details: 37°C; for half-life at 50 μM / remaining at 24 h, 50 μM: human blood serum (centrifuged to remove lipid), 24 h, RP-HPLC at 254 nm; for half-life at 50 μM: n = 3; for serum half-life compared to P1: human blood serum, 50 μM; for remaining at 24 h, 50 μM: n = 3, read-out: peptide intact after 24 h in serum
Method: The impact of N-terminal modification (P2 and P3) and Sr (N-methylglycine) substitution (P4 and P5) in P1 were investigated for their proteolytic stability towards blood plasma proteases. The assay involved the incubation of peptides (50 μM) with blood serum at 37°C for a period of 24 h and assessing the amount of intact peptides at different time points (0, 3, 6, 12 and 24 h) using RP-HPLC. […] Remarkably, P4 and P5 were very stable towards blood plasma proteases in comparison to the other peptides (P1, P2 and P3). […] Proteolytic enzymes generally recognize the specific amide bond between the natural amino acids and cleave them. […] On the other hand, P4 and P5 with an unnatural amino acid (Sr: N-methylglycine) in alternate positions were not recognized by the blood plasma proteases, resulting in their high blood plasma protease stability.
Figure 6 Serum stability of inhibitors. Inhibitors (50 μM) (P1-P5)were incubated in human blood serum (HBS) and were analyzed at different time points over a duration of 24 h to determine the percentage of intact inhibitor. […] Each experiment was repeated three times (n = 3). Error bars represent the standard deviation (SD) of the […] measurement.
Human blood serum (HBS) was used to determine serum stability of the inhibitors. The HBS was centrifuged to remove the lipid component, and the supernatant was incubated at 37°C. 50 Μm of each inhibitor (P1, P2, P3, P4 and P5) was incubated in HBS and then 40 μL triplicate aliquots were removed at 0, 1, 3, 6, 10, 16, and 24 h. Each serum sample was quenched with 40 μL of 6 M urea and incubated at 4°C for 10 min. Then, each serum sample was quenched with 40 μL of trichloroacetic acid (20%) and incubated for another 10 min at 4°C to precipitate the serum proteins. The samples were centrifuged for 10 min, and […] of the supernatant was analyzed on RP-HPLC using a linear gradient of solvent B (0.3 mL/min flow rate). The control samples containing equivalent amounts of inhibitors in PBS buffer were subjected to the same treatment procedure. The percentage recovery of inhibitors was detected by integration at 254 nm[45].

Aβ42 = target: T1, Aβ42 (Homo sapiens, UniProt P05067); assay: ThT fluorescence inhibition assay of Aβ42 fibrillization; type: biochemical; details: for growth phase of Aβ42 fibrillization, time-dependent ThT assay / inhibition efficiency, time-dependent ThT assay: 1:2, 37°C, n = 3; for growth phase of Aβ42 fibrillization, time-dependent ThT assay: normalized fluorescence at 485 nm
T1 construct: Aβ42 peptide (0.25 mg) (Calbiochem, Merck) was dissolved in hexafluoro-2-propanol; purchased Calbiochem, Merck
Method: ThT assay has been widely used to monitor the transformation of Aβ42 monomers to fibrillar aggregates. We employed ThT assay to evaluate the ability of our peptidomimetic candidates to either prevent fibril assembly (inhibition) or to break down preformed fibrils of Aβ42 (dissolution). For the inhibition assay all the peptidomimetics (P2, P3, P4 and P5) along with control peptide P1 were added at 0 h of the experiment, whereas for the aggregates reversal (dissolution) assay they were added to Aβ42 fibrillar aggregates grown for 2 days. Once they had been incubated together, Aβ42/inhibitors were analyzed using ThT by measuring the fluorescence changes. First, we performed concentration-dependent experiments where different ratios of P1, P2, P3, P4 and P5 were incubated with fixed concentrations of Aβ42 (20 μM) and its aggregates to study their effect on both inhibition and reversal assay, respectively. Experiments were performed at stoichiometric ratios (Aβ42/inhibitor) of 1:0.2, 1:1, and 1:2 with the fixed concentration of Aβ42 of 20 μM. […] However, the efficiencies of P4 and P5 were only marginally better in inhibition assay compared to reversal assay with a difference of about 15%.
Fluorescence spectral measurements were carried out using Perkin Elmer Model LS 55 fluorescence spectrophotometer. […] A ThT concentration of 5–10 µM was used for amyloid fibrillization and dissolution assay based on the Aβ42 fibrillar concentration.
(§1) Prior to the experiment, P1, P2, P3, P4 and P5 were dissolved in HFIP and were evaporated under a stream of dry nitrogen. The dried samples were re-suspended in 10 mM PBS buffer at pH 7.4. An aliquot of Aβ42 peptide was then added to the solution with or without one of the inhibitor P1, P2, P3, P4 and P5. The mixtures were vortexed for approximately 30 s and then incubated at 37°C for 2–3 days without shaking. The final concentration of Aβ42 in the mixture was 20 μΜ. For a dissolution experiment, Aβ42 was incubated alone for 2 days to allow fibrils to form. An aliquot of the formed fibrils in 10 mM PBS buffer was then added to the inhibitor peptidomimetics. The amount of fibrils remaining intact was assayed using that fluorescence, CD measurements and transmission electron microscopy as described below.

Aβ42 aggregates = target: T2, Aβ42 aggregates (Homo sapiens, UniProt P05067); assay: CD measurement, reversal assay (β-sheet band at 218 nm); type: biochemical; details: Aβ42 aggregates 20 μM, inhibitor 40 μM, six days at 37°C
T2 construct: Aβ42 peptide (0.25 mg) (Calbiochem, Merck) was dissolved in hexafluoro-2-propanol; purchased Calbiochem, Merck
Source text: To further validate our results, we performed CD studies. Aβ42 aggregates are predominantly made of β-sheet assembly, which can be assessed by CD measurements. […] In this assay, we monitored the intensity of negative CD band centered at 218 nm, characteristic of a β-sheet structure and a decrease in its intensity was correlated with a reduction in the toxic Aβ42 aggregates (supplementary Fig. S2). In these CD measurements, samples similar to ThT fluorescence assays were used to allow for direct comparison between the two experiments. In the case of inhibition assay, Aβ42 monomers were incubated with inhibitor candidates for 4 days at 37°C and then CD measurements were performed to evaluate the inhibition efficiency. […] In the reversal assay, Aβ42 aggregates were incubated with the inhibitor candidates for six days at 37°C and then, CD measurements were performed. CD data was in excellent agreement with the dissolution efficiency obtained in reversal assay experiments monitored by the ThT assay (Fig. 2). […] Overall, inhibition and dissolution efficiencies obtained in the ThT fluorescence assay and CD measurements were in good agreement.
The circular dichroic (CD) spectra were recorded using a Jasco J-815 spectrometer under nitrogen atmosphere. Peptides were dissolved in 10 mM PBS buffer at pH 7.4 at concentrations of 20 µM. A 10 mm path length was used for the measurements. Four to five scans were acquired from 200 to 300 nm.
as §1

[1] = Aβ42 20 μM, Aβ42:inhibitor 1:2 (40 μM), inhibitor added at 0 h, four days at 37°C, 10 mM PBS pH 7.4, n = 3, read-out: inhibition efficiency (reduction in the fluorescence intensity of ThT)

T2 sequence (P05067 672-713 limits assumed): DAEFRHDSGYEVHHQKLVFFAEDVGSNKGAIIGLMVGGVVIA
T1 sequence (P05067 672-713 limits assumed): as above

Compound	half-life at 50 μM (Serum stability assay)	serum half-life compared to P1 (Serum stability assay)	inhibition at 40 µM (Aβ42; [1])	growth phase of Aβ42 fibrillization, time-dependent ThT assay (Aβ42; Aβ42 20 μM)	dissolution efficiency by CD, reversal assay (Aβ42 aggregates)	inhibition at 40 µM (Aβ42; pH 7.4, read-out: inhibition efficiency (reduction in the fluorescence intensity of ThT))	remaining at 24 h, 50 μM (Serum stability assay)	inhibition efficiency, time-dependent ThT assay (Aβ42; Aβ42 20 μM)
Cc1cn(CC(=O)N[C@@H](CCCCN)C(=O)N[C@@H](CC(C)C)C(=O)N[C@H](C(=O)N[C@@H](Cc2ccccc2)C(=O)N[C@@H](Cc2ccccc2)C(N)=O)C(C)C)c(=O)[nH]c1=O [P2]	~10 h	3 times	55%	< 60%	40%			
CC(C)C[C@H](NC(=O)[C@H](CCCCN)NC(=O)CC1C(=O)NC(=O)NC1=O)C(=O)N[C@H](C(=O)N[C@@H](Cc1ccccc1)C(=O)N[C@@H](Cc1ccccc1)C(N)=O)C(C)C [P3]	~10 h	3 times		< 60%	25%	40%		
Cc1cn(CC(=O)N(C)CC(=O)N[C@@H](CC(C)C)C(=O)N(C)CC(=O)N[C@@H](Cc2ccccc2)C(=O)N(C)CC(=O)N[C@@H](C)C(N)=O)c(=O)[nH]c1=O [P4] ({Acetyl(thymin-1-yl)}-[Sar]L[Sar]F[Sar]A-NH2)			≤ 95%		> 75%		> 90%	> 90%
Cc1cn(CC(=O)N[C@@H](CCCCN)C(=O)N(C)CC(=O)N[C@H](C(=O)N(C)CC(=O)N[C@@H](Cc2ccccc2)C(=O)N(C)CC(N)=O)C(C)C)c(=O)[nH]c1=O [P5] ({Acetyl(thymin-1-yl)}-K[Sar]V[Sar]F[Sar]-NH2)			≤ 95%		> 75%		> 90%	> 90%
